Test [1] concerns eyelid closure (ptosis). The test can be described thus: Ptosis, mouse. The following applies: po, read-out: Ptosis MED. It counts as in vivo.
For test [2], the system named is catalepsy. The test can be described thus: Catalepsy, mouse. It counts as in vivo. Conditions: po, read-out: Catalepsy MED. An excerpt:
(§1) The ability of an animal to remain in an abnormal position is used as another indication of central nervous system depressant activity. A test animal is removed from its observation cage and positioned so that its hind legs are on the table top and its front legs rest on the side of the observation cage. If an animal maintains this position for at least 10 seconds, it is considered to be showing cataleptic behavior.

The subject of test [3] is locomotor activity. Put plainly: Decreased Locomotor Activity (L.M.A.), mouse. Conditions: po, read-out: L.M.A. MED. Format: in vivo. As to the method:
(§2) Decreased Locomotor Activity (L.M.A.)
(§3) This reaction sign is measured subjectively by observing how an animal behaves when it is removed from an observation cage and placed on a table top. […] The degree of stimulation by the observer needed to produce active locomotion is rated on an arbitrary scale. This ranges from a score of -1 where only a slight touch of the animal's body is required to a -4 where the animal is unresponsive or minimally responsive to the application of a pain stimulus (pressure at the base of the tail). The minimal effective dose (MED) is the lowest oral dose producting an obvious decrease of locomotor activity (with a score of at least -1). Groups of 3 mice are given decreasing oral doses at 0.5 log intervals (300, 100, 30. . .etc.) until no behavioral effects are evident. Decrease of locomotor activity is indicative of general central nervous system depressant activity.

Test [4] relates to locomotor activity. The test can be described thus: Decreased Locomotor Activity (L.M.A.), rat. It counts as in vivo. Conditions: po, read-out: L.M.A. MED. As to the method: as §2, §3
In test [5] the test system is phenyl-p-benzoquinone-induced writhing. Put plainly: Phenylquinone Writhing (P.Q.W.). Format: in vivo, mouse. Conditions: po. A general note: Writhing tests count abdominal constrictions after an irritant is injected.
Test [6] deals with catalepsy. The test can be described thus: Catalepsy, rat. Format: in vivo. The following applies: po, read-out: Catalepsy MED.
From the text: as §1

In test [7] the test system is eyelid closure (ptosis). Put plainly: Ptosis, rat. It counts as in vivo. The following applies: po, read-out: Ptosis MED. An excerpt:
Degree of eyelid closure is used as a measure of central nervous system depression. An animal is removed from its observation cage and allowed to remain outside the cage for 30 seconds. At the end of this time a rating of degree of eyelid closure is made on an arbitrary scale.

The test system of a further test is taming. Put plainly: Rhesus Monkey Taming Effects. Format: in vivo. The following applies: Macaca mulatta, po, read-out: Taming MED. The method, then:
Rhesus Monkey Taming Effects (Taming):
Results given in: mg/kg po/monkey
Compounds are administered orally to groups of 6 rhesus monkeys. The behavior of the animals is then evaluated by observational means. Taming effects are determined by the ability of the observer to approach and touch the monkey. Compounds with major tranquilizer activity in man can produce a state of passive tameness in the rhesus monkey wherein it can be touched without provoking any of the threatening or aggressive behavior seen in the normal animal. The MED is the minimal oral dose at which some taming effect can be observed.

For test [8], the system named is TBZ-induced ptosis. The test can be described thus: Tetrabenazine Antagonism (T.B.Z.A.), rat. Format: in vivo. Conditions: po, 1 h, read-out: T.B.Z.A. ED50. As to the method: (§4) Tetrabenazine Antagonism (T.B.Z.A.)
(§5) The tetrabenazine (TBZ) antagonism test is used to test for potential antidepressant-like activity in rodents. One hour after oral administration of a test compound, a 40 mg/kg dose of TBZ is given subcutaneously. Thirty minutes after TBZ administration, the mice are placed in the center of a circle; the diameter of the circle is twice the body length of the mouse or rat. After 30 seconds, a reading is made of the degree of ptosis and whether the animal has moved out of the circle. Animals that have received only TBZ will show marked ptosis and immobility. Tricyclic antidepressants of the imipramine type will antagonize the ptosis but not the immobility. Antidepressants of the amphetamine or monoamine oxidase inhibitory type will antagonize both the ptosis and immobility induced by TBZ. The ED50 is the dose producing antagonism of TBZ-induced ptosis, but not of TBZ-induced immobility, in 50% of the animals.

In test [9] the test system is conditioned avoidance response. Put plainly: Dog Conditioned Avoidance Response (C.A.R.). It counts as in vivo. The following applies: Canis lupus familiaris, po, read-out: C.A.R. ED50. As to the method:
Dog Conditioned Avoidance Response (C.A.R.):
Results given in: mg/kg po/dog
Dogs are trained to raise a forelimb when presented with a conditioned stimulus (light) in order to avoid an electric shock. Blocks of 10 trials are given to groups of 4 dogs during a pretreatment period and at 1, 2, and 4 hours after oral administration of the test compound. The ED50 values are calculated as the dose causing 50% of the animals to show 5 or more incorrect responses. Blocking of the C.A.R. at non-toxic doses appears to correlate with major tranquilizer activity in man.

In test [10] the test system is fear / feeding in approach-avoidance conflict. The test can be described thus: Rat Conflict (Approach-Avoidance) Test. Format: in vivo. The following applies: po, read-out: Conflict MED. As to the method:
Rat Conflict (Approach-Avoidance) Test (Conflict)
Results given in: mg/kg po/rat
Food deprived rats are trained to pass from one compartment to an adjacent one to obtain food. The training consists of 3 exposures to the test situation on day one of the experiment. The rats are given limited (1-2 hr) free access to food in their home cages on day one and are then food deprived for at least 18 hours. On day two of the experiment, the rats are given a control exposure to the test situation followed by a second exposure after one-half to 1 hour in which they are shocked after crossing and eating. Groups of 6-8 rats are then dosed orally with solvent or test compound and then re-exposed to the test situation after 1 or 2 hours.
Compounds showing minor tranquilizer (anxiolytic) activity in man such as diazepam and meprobamate produce an apparent decreased fear in the test animals so that they cross to obtain food despite having received a shock earlier. This effect is dose-related (and the MED is the minimum dose at which this effect is obtained); rats dosed with solvent only consistently show a high level of fear as evidenced by decreased mobility and absence of feeding when placed in the test situation after receiving a shock.

Test [11] has as its system TBZ-induced ptosis. Put plainly: Tetrabenazine Antagonism (T.B.Z.A.), mouse. Format: in vivo. Conditions: po, 1 h, read-out: T.B.Z.A. ED50. As to the method:
as §4, §5

In test [12] the test system is conditioned avoidance response. The test can be described thus: Conditioned Avoidance Response (C.A.R.), rat. It counts as in vivo. Conditions: po, read-out: C.A.R. ED50. As to the method:
(§6) Mouse and Rat Conditioned Avoidance Response (C.A.R.):
(§7) Mice and rats are trained to jump out of a pit onto a ledge to avoid shock when presented with a light and sound conditioned stimulus. The animals are tested 1, 2, and 4 hours after administration of the test compound. Three to four dose levels and groups of 4-8 animals/dose are used. The ED50 is the dose producing a block of the C.A.R. in 50% of the animals. Blocking of the C.A.R. at non-toxic doses appears to correlate with major tranquilizer activity in man.

For test [13], the system named is conditioned avoidance response. The test can be described thus: Conditioned Avoidance Response (C.A.R.), mouse. Conditions: po, read-out: C.A.R. ED50. It counts as in vivo. The method, then: as §6, §7
The mark [14] stands for this setting: 0.5 h, mouse, phenyl-p-benzoquinone 2.5 mg/kg i.p. 30 minutes after compound, read-out: P.Q.W. ED50.

Structures are written as SMILES. Where two headings read alike, the source gives them in different places.

Usually ED50 stands for the dose that gives a 50% effect, or the effect in half of the subjects.

`c1ccc(CN2CC[C@@H]3[C@@H](C2)c2cccc4c2N3c2ccccc2CC4)cc1` (relative stereo) [Example 6, trans-3-Benzyl-1,2,3,4,4a,8,9,14a-octahydropyrido[4',3':2,3]indolo[1,7-ab][1]benzazepine]: the minimal effective dose with eyelid closure (ptosis) [1] (mouse, passive ptosis) is 13 mg/kg; in the test with catalepsy [2] (mouse) it was 49 mg/kg; in the test on locomotor activity [3] (mouse, minimal effective dose) it was 2 mg/kg; in the test on locomotor activity [4] (minimal effective dose) it was 65 mg/kg; in the test with catalepsy [6] (rat) it was above 300 mg/kg; with eyelid closure (ptosis) [7] (rat, passive ptosis), 150 mg/kg. The ED50 in test [5] (setting [14]) stood at 28 mg/kg.
Take `c1ccc2c(c1)CCc1cccc3c1N2[C@H]1CCN(C[C@H]2[C@@H]4CCCC[C@@H]42)C[C@H]31` (relative stereo) [Example 7, trans-1,2,3,4,4a,8,9,14a-Octahydro-3-(exo-7-norcarylmethyl)pyrido[4',3':2,3] indolo[1,7-ab][1]benzazepine]: the minimal effective dose in the test with eyelid closure (ptosis) [1] (mouse, passive ptosis) is 3 mg/kg; in the test on catalepsy [2] (mouse), 3 mg/kg; in the test on locomotor activity [3] (mouse, minimal effective dose) it was 3 mg/kg; with locomotor activity [4] (minimal effective dose) it was 3 mg/kg; in the test on catalepsy [6] (rat) it was 300 mg/kg; with eyelid closure (ptosis) [7] (rat, passive ptosis), 3 mg/kg. For the same compound, the ED50 in [5] (setting [14]) came out at 14 mg/kg.
Take `Cl.c1ccc2c(c1)CCc1cccc3c1N2[C@@H]1CCN(CC2CCCC2)C[C@@H]31` (relative stereo) [cyclopentylmethyl, trans-3-cyclopentylmethyl1,2,3,4,4a,8,9,14a-octahydropyrido[4',3':2,3]indolo[1,7-ab][1]benzazepine hydrochloride]: in [5] (setting [14]), the ED50 worked out at 2 mg/kg.
With `CN1CC[C@H]2[C@@H](C1)c1cccc3c1N2c1ccccc1CC3` (relative stereo) [methyl octahydro cis], the minimal effective dose in the test with taming is above 20 mg/kg; with eyelid closure (ptosis) [1] (Mus musculus), above 300 mg/kg; with catalepsy [2] (Mus musculus), above 300 mg/kg; in the test on locomotor activity [3] (Mus musculus), 30 mg/kg; with locomotor activity [4], 30 mg/kg; in [10] (Rattus norvegicus), above 40 mg/kg. Besides, the minimal effective dose in the test with catalepsy [6] (Rattus norvegicus) and in the test with eyelid closure (ptosis) [7] (Rattus norvegicus) was above 300 mg/kg throughout. Also, the ED50 is 7.4 mg/kg with TBZ-induced ptosis [8] (Rattus norvegicus); above 30 mg/kg in test [9] (4 h); 15 mg/kg with TBZ-induced ptosis [11] (Mus musculus); above 40 mg/kg in test [12] (Rattus norvegicus, 4 h); above 40 mg/kg in test [13] (Mus musculus, 4 h).
Regarding `c1ccc(CCN2CC[C@H]3[C@H](C2)c2cccc4c2N3c2ccccc2CC4)cc1` (relative stereo) [phenethyl, trans-1,2,3,4,4a,8,9,14a-octahydro-3-phenethylpyrido[4',3+:2,3]indolo[1,7-ab][1]benzazepine], the ED50 in [5] (setting [14]) is 4.7 mg/kg.
On to `c1ccc2c(c1)CCc1cccc3c4c(n-2c13)CCN(CC1CC1)C4` [(cyclopropylmethyl) hexahydro, 3-(cyclopropylmethyl)-1,2,3,4,8,9-hexahydropyrido[4',3':2,3]indolo[1,7-ab][1]benzazepine], for which the minimal effective dose in the test with taming (rhesus monkey) amounted to 3 mg/kg; in the test with eyelid closure (ptosis) [1] (mouse, passive ptosis) it was 30 mg/kg; in the test on catalepsy [2] (mouse), 30 mg/kg; with locomotor activity [3] (mouse, minimal effective dose), 10 mg/kg; in the test on locomotor activity [4] (minimal effective dose), 10 mg/kg; in test [10] (rat, after 1 or 2 hours) it was 10 mg/kg. Also, the minimal effective dose in the test on catalepsy [6] (rat) amounted to 30 mg/kg; in the test on eyelid closure (ptosis) [7] (rat, passive ptosis), 30 mg/kg. Besides, the ED50 in the test on TBZ-induced ptosis [8] (rat, TBZ 40 mg/kg s.c. one hour after compound) is above 100 mg/kg; in [9] (dog, 5 or more incorrect responses in 50% of animals, 1, 2, and 4 hours) it was above 30 mg/kg; in the test with TBZ-induced ptosis [11] (mouse, TBZ 40 mg/kg s.c. one hour after compound), above 100 mg/kg; in test [12] (rat, block of C.A.R. in 50% of animals, 1, 2, and 4 hours), 40 mg/kg; in test [13] (mouse, block of C.A.R. in 50% of animals, 1, 2, and 4 hours) it was 20 mg/kg.
Regarding `COc1ccc2c3c1O[C@H]1[C@@H](O)C=C[C@H]4[C@@H](C2)N(C)CC[C@@]341` [Codeine phosphate], the ED50 in test [5] (Mus musculus, read-out: Analgesic ED50) was determined as 19 mg/kg.
Take `CC(=O)Oc1ccccc1C(=O)O` [aspirin]: the ED50 in [5] (setting [14]) turned out to be 94 mg/kg.
Consider `c1ccc(CN2CCc3c(c4cccc5c4n3-c3ccccc3CC5)C2)cc1` [benzyl hexahydro, 3-benzyl-1,2,3,4,8,9-hexahydropyrido[4',3':2,3]indolo[1,7-ab][1] benzazepine], for which the minimal effective dose in the test on eyelid closure (ptosis) [1] (mouse, passive ptosis) is above 300 mg/kg; with catalepsy [2] (mouse), above 300 mg/kg; in the test on locomotor activity [3] (mouse, minimal effective dose) it was around 200 mg/kg; with locomotor activity [4] (minimal effective dose), above 300 mg/kg; in the test with catalepsy [6] (rat), above 300 mg/kg; with eyelid closure (ptosis) [7] (rat, passive ptosis), above 300 mg/kg.
Take `COc1ccc2c3c1O[C@H]1[C@@H](O)C=C[C@H]4[C@@H](C2)N(C)CC[C@@]341` [codeine]: in test [5] (Mus musculus, 0.5 h, read-out: P.Q.W. ED50), the ED50 was 19 mg/kg.
With `CC(C)CN1CCc2c(c3cccc4c3n2-c2ccccc2CC4)C1` [isobutyl hexahydro], the minimal effective dose in the test with eyelid closure (ptosis) [1] (mouse, passive ptosis) is around 60 mg/kg; in the test on catalepsy [2] (mouse), around 60 mg/kg; with locomotor activity [3] (mouse, minimal effective dose), around 60 mg/kg.

For the origin of these results see patent US3932650A, “Trans-octahydropyridoindolobenzazepines as central nervous system depressants” (E. I. Du Pont de Nemours & Company, priority 1973, dated 1976).
